Experimental data: US20160075689A1, “POLYMERASE, ENDONUCLEASE, AND HELICASE INHIBITORS AND METHODS OF USING THEREOF” (THE BOARD OF TRUSTEES OF THE UNIVERSITY OF ARKANSAS, priority 2013, published 2016)

target: T1, EndoG (Homo sapiens, UniProt Q14249); assay: High-throughput EndoG screening assay; assay type: biochemical; conditions: 20 min; compound 1 μM; read-out: % EndoG activity in the presence of the compound
T1 sequence (Q14249 49-297): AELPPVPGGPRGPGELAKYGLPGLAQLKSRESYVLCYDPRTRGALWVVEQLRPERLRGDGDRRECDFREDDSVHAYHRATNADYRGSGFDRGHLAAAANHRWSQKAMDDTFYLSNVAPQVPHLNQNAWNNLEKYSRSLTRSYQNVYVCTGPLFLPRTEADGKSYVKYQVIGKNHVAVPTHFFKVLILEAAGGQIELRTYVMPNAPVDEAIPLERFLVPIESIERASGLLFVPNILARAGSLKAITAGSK
Procedure: A reaction mixture was prepared in each well of a white 96-well plate (Costar, Corning, N.Y.) as follows: 0.25 μM Cy5.5-labeled oligonucleotide (described in US provisional patent filed Oct. 19, 2012, Ser. No. 61/716,097) 0.3 mM MgCl2, 10 mM Tris-HCl, pH 7.4, 1 μl DMSO containing 5 or 50 ng of test compound, and nuclease-free water for a total reaction volume of 100 μl. The background (negative control) and uninhibited EndoG samples were measured using DMSO only, or DMSO containing recombinant EndoG (4 μg/ml), respectively. After addition of EndoG, fluorescence intensity was kinetically measured on a Bio-Tek Synergy 4.0 plate reader at 37° C. and mean velocity (mRFU/min) within 20 min was automatically calculated by the plate reader. The background was subtracted prior to the calculation of EndoG activity (%). The percent of EndoG activity was calculated from the mean velocity of a compound divided by the mean velocity of DMSO with recombinant EndoG, and the obtained value multiplied by 100.

Row | Structure (SMILES) | remaining activity at 1 µM [%]
1 | COc1cc(Cn2c(C)c(C=C3C(=O)NC(=S)NC3=O)c3ccccc32)cc(OC)c1 [PNR-5-96] | 71.5
2 | Cc1c(C=C2C(=O)NC(=S)NC2=O)c2ccccc2n1Cc1ccc([N+](=O)[O-])cc1 [PNR-6-17] | 69.8
3 | CN1C(=O)C(=Cc2cn(C(=O)c3cccc4ccccc34)c3ccc(Cl)cc23)C(=O)N(C)C1=O [PNR-6-59] | 47.5
4 | CN1C(=O)C(=Cc2cn(C(=O)c3ccc4ccccc4c3)c3ccc(Cl)cc23)C(=O)N(C)C1=O [PNR-6-60] | 67.9
5 | Cc1c(C=C2C(=O)NC(=O)NC2=O)c2ccccc2n1C(=O)c1cccc2ccccc12 [PNR-6-64] | 71.7
6 | Cc1c(C=C2C(=O)NC(=S)NC2=O)c2ccccc2n1C(=O)c1cccc2ccccc12 [PNR-6-65] | 65
7 | Cc1c(C=C2C(=O)NC(=S)NC2=O)c2ccccc2n1C(=O)c1ccc2ccccc2c1 [PNR-6-69] | 31.6
8 | COc1ccc2c(c1)c(C=C1C(=O)NC(=S)NC1=O)c(C)n2C(=O)c1cccc2ccccc12 [PNR-6-74] | 63.5
9 | O=C1NC(=S)NC(=O)C1=Cc1cn(Cc2cccc3ccccc23)c2ccccc12 [PNR-6-83] | 16
10 | COc1ccc2c(c1)c(C=C1C(=O)NC(=O)NC1=O)cn2Cc1cccc2ccccc12 [PNR-6-85] | 52.7
11 | COc1ccc2c(c1)c(C=C1C(=O)NC(=S)NC1=O)cn2Cc1cccc2ccccc12 [PNR-6-86] | 9.55
12 | O=C1NC(=O)C(=Cc2cn(Cc3cccc4ccccc34)c3ccc(Cl)cc23)C(=O)N1 [PNR-6-88] | 22.9
13 | O=C1NC(=S)NC(=O)C1=Cc1cn(Cc2cccc3ccccc23)c2ccc(Cl)cc12 [PNR-6-89] | 3.5
14 | CN1C(=O)C(=Cc2cn(Cc3cccc4ccccc34)c3ccc(Cl)cc23)C(=O)N(C)C1=O [PNR-6-90] | 35.9
15 | O=C1NC(=O)C(=Cc2cn(Cc3cccc4ccccc34)c3ccc(Br)cc23)C(=O)N1 [PNR-6-91] | 12.7
16 | O=C1NC(=S)NC(=O)C1=Cc1cn(Cc2cccc3ccccc23)c2ccc(Br)cc12 [PNR-6-92] | 8.9

Row | Structure (SMILES) | remaining activity at 1 µM [%]
17 | CN1C(=O)C(=Cc2cn(Cc3cccc4ccccc34)c3ccc(Br)cc23)C(=O)N(C)C1=O [PNR-6-93] | 45.8
18 | O=C1NC(=S)NC(=O)C1=Cc1cn(Cc2ccc3ccccc3c2)c2ccccc12 [PNR-6-98] | 15.7
19 | CN1C(=O)C(=Cc2cn(Cc3ccc4ccccc4c3)c3ccccc23)C(=O)N(C)C1=O [PNR-6-99] | 71.7
20 | O=C1NC(=O)C(=Cc2cn(Cc3ccc4ccccc4c3)c3ccc(Cl)cc23)C(=O)N1 [PNR-7-1] | 14.8
21 | O=C1NC(=S)NC(=O)C1=Cc1cn(Cc2ccc3ccccc3c2)c2ccc(Cl)cc12 [PNR-7-2] | 17.8
22 | CN1C(=O)C(=Cc2cn(Cc3ccc4ccccc4c3)c3ccc(Cl)cc23)C(=O)N(C)C1=O [PNR-7-3] | 59.1
23 | COc1ccc2c(c1)c(C=C1C(=O)NC(=O)NC1=O)cn2Cc1ccc2ccccc2c1 [PNR-7-4] | 24.7
24 | COc1ccc2c(c1)c(C=C1C(=O)NC(=S)NC1=O)cn2Cc1ccc2ccccc2c1 [PNR-7-5] | 13.8
25 | O=C1NC(=O)C(=Cc2cn(Cc3ccccc3Br)c3ccccc23)C(=O)N1 [PNR-7-7] | 14.1
26 | O=C1NC(=S)NC(=O)C1=Cc1cn(Cc2ccccc2Br)c2ccccc12 [PNR-7-8] | 58
27 | CN1C(=O)C(=Cc2cn(Cc3cccc(C(F)(F)F)c3)c3ccccc23)C(=O)N(C)C1=O [PNR-7-16] | 17.2
28 | O=C1NC(=O)C(=Cc2cn(Cc3cccc(C(F)(F)F)c3)c3ccc(Cl)cc23)C(=O)N1 [PNR-7-17] | 57.1
29 | O=C1NC(=S)NC(=O)C1=Cc1cn(Cc2cccc(C(F)(F)F)c2)c2ccc(Cl)cc12 [PNR-7-18] | 14.1
30 | COc1ccc2c(c1)c(C=C1C(=O)NC(=S)NC1=O)cn2Cc1cccc(C(F)(F)F)c1 [PNR-7-21] | 28.8
31 | Cc1c(C=C2C(=O)NC(=S)NC2=O)c2ccccc2n1Cc1cccc(C(F)(F)F)c1 [PNR-7-24] | 73.6
32 | COc1ccc2c(c1)c(C=C1C(=O)NC(=S)NC1=O)c(C)n2Cc1cccc2ccccc12 [PNR-7-27] | 19.1

target: T2, hpol η (Homo sapiens, UniProt Q9Y253); assay: Fluorescence-based DNA polymerase strand-displacement assay; assay type: biochemical; conditions: not given
T2 construct: human DNA polymerases η (amino acids 1-437); 6x-histidine (N, cleaved yes); GST (N, cleaved yes); made in house; host or cells: Escherichia coli BL21 (DE3)
T2 sequence (Q9Y253 1-437): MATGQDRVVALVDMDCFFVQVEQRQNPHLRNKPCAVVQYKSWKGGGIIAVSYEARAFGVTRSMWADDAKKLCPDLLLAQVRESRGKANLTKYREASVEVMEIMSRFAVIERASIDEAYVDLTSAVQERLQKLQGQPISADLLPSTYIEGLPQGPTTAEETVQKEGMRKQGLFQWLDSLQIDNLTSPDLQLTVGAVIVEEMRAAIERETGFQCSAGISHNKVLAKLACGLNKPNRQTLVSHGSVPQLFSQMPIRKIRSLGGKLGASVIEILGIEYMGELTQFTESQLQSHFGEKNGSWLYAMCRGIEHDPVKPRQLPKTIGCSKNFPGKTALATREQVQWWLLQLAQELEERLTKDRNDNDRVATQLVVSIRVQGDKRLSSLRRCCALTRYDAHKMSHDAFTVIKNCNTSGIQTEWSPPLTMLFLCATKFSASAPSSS
From the text: A library of 320 compounds targeted against nucleic acid interacting proteins was screened for inhibition of polymerase activity using an assay that monitors fluorescence from a 5-carboxytetramethylrhodamine (TAMRA) labeled oligonucleotide. In order to prepare the DNA for the experiment, a TAMRA-labeled reporter (or displaced) strand (SEQ ID NO. 4: 5′-TTT TTT TTG C-TAMRA-3′) and unlabeled primer strand (SEQ ID NO. 5: 5′-TCA CCC TCGTAC GAC TCT T-3′) were annealed to a Black Hole Quencher (BHQ)-labeled template strand (SEQ ID NO. 6: 5′BHQ2-GCAAAAAAAAAA GAG TCG TAC GAG GGT GA-3′) in a solution containing 10 mM Tris (pH 8.0), 50 mM NaCl, 2 mM MgCl2, and dH2O. The template (T), primer (P) and displaced strand (D) oligonucleotides were mixed in a 1:1.5:1.5 (T:P:D) molar ratio for annealing. After an incubation period of three minutes at 95° C., the DNA was allowed to slowly cool to room temperature overnight.
The fluorescence-based assay used to screen for polymerase inhibitors measures polymerase-catalyzed displacement of a TAMRA-labeled oligonucleotide (FIG. 1). For the initial screen, the experimental setup included 50 nM hpol η), 50 nM DNA, 6 μM compound, 100 μM dTTP and 1 mM MgCl2. The reactions were performed in 50 mM Tris (pH 8.0) buffer containing 40 mM NaCl, 2 mM dithiothreitol, and 0.01% (v/v) Tween-20. The concentration of dimethyl sulfoxide (DMSO) was 3.5% (v/v) for the initial screen. The enzyme, the compounds (including a DMSO control) and dTTP were combined with the reaction buffer in individual wells of each half-plate and allowed to incubate for 5-10 minutes. The DNA substrate was subsequently added to initiate the reaction and the plate was read immediately using a BioTek SynergyH4 plate reader (λex=525 nm, λem=598 run). The final reaction volume was 200 μL. Fluorescence was monitored for 90 minutes for most reactions. The initial portion of the velocity curve was analyzed by linear regression to calculate an observed rate of product formation. For each data set, eight DMSO control experiments were averaged to obtain our measure of 100% activity. Rates of product formation in the presence of each compound were then divided by the rate of the DMSO control to produce a relative measure of polymerase activity (0 to 1, with 1 being no inhibition).
In order to determine the IC50 value for each enzyme, the fluorescence-based polymerase assay was repeated with increasing concentrations of inhibitor. The conditions varied slightly for each enzyme. With the exception of hpol ι, all IC50 experiments were performed in 50 mM Tris HCl (pH 8.0) buffer containing 1 mM MgCl2, 0.1 mM dTTP, 40 mM NaCl, 2 mM DTT, 0.01% (v/v) Tween-20 and 10% (v/v) DMSO. For experiments with hpol ι, KCl was substituted for NaCl and 0.25 mM MnCl2 was substituted for MgCl2. The concentration of inhibitor was 0, 1, 5, 10, 20, 30, 50, 75 and 100 μM. The enzyme and DNA concentrations were as follows: 10 nM hpol η, 50 nM DNA; 3 nM hpol κ, 60 nM DNA; 50 nM hpol ι, 50 nM DNA; 10 nM Dpo4, 50 nM DNA; 100 nM Dpo1, 50 nM DNA; 50 nM hpol β, 50 nM DNA; 50 nM HIV-1 RT, 50 nM DNA. The percent activity was plotted as a function of the log of inhibitor concentration and fit to a four-parameter logistic model (equation 1) using Prism software (Graph Pad, San Diego, Calif.): […]

Row | Structure (SMILES) | IC50 [µM]
33 | O=C1NC(=S)NC(=O)C1=Cc1cn(C(=O)c2cccc3ccccc23)c2ccc(Cl)cc12 [ITBA-17] | 15.8 ± 3.3

same assay, conditions: 50 μM compound

Row | Structure (SMILES) | hpol η percent activity relative to the control assay
34 | O=C1NC(=S)NC(=O)C1=Cc1cn(C(=O)c2cccc3ccccc23)c2ccc(Cl)cc12 [ITBA-17] | most potent inhibitor

target: T1, EndoG; assay: Plasmid incision assay; assay type: biochemical; conditions: agarose gel, FIG. 9
Procedure: A reaction mixture was prepared containing 0.5 μg pECFP plasmid DNA, 2 mM CaCl2, 5 mM MgCl2, 10 mM Tris-HCl, pH 7.4, 0.5 mM dithiothreitol. The test compound [50 ng in DMSO (1 μl)] was added. Recombinant EndoG was then added to the final concentration of 200 ng/ml and the reaction was incubated for 1 h at 37° C. The reaction was terminated by adding 2 μl of 10 mM Tris-HCl, pH 7.4, 1% SDS, 25 mM EDTA, 7.2 mM bromophenol blue. The samples were run in 1% agarose gel in Tris-acetate-EDTA buffer (40 mM Tris, 20 mM acetic acid, 1 mM EDTA, pH 8), at 7 V/cm for 35 min, and DNA was stained with ethidium bromide. An EagleEye scanning densitometer (Stratagene, La Jolla, Calif.) was utilized to quantify the relative amount of endonuclease-treated plasmid DNA present in a covalently-closed circular (supercoiled) DNA, open circular DNA, or linear DNA, or in a digested form.

Row | Structure (SMILES) | protection of supercoiled plasmid DNA from degradation by EndoG
35 | [Cl-].[Cl-].[Zn+2] [ZnCl2, reference compound] | inhibited
